pEC50: −log10 of the molar value.
Key:
[1] = molecular target: T1, human CYP11B2 (Homo sapiens, UniProt P19099); assay: G-402 cellular enzyme assay, human CYP11B2 (aldosterone release, HTRF); format: cell-based; details: G-402 cells, 1 μM Deoxycorticosterone
T1 construct: expressed in transfected cells
T1 sequence (P19099 25-503): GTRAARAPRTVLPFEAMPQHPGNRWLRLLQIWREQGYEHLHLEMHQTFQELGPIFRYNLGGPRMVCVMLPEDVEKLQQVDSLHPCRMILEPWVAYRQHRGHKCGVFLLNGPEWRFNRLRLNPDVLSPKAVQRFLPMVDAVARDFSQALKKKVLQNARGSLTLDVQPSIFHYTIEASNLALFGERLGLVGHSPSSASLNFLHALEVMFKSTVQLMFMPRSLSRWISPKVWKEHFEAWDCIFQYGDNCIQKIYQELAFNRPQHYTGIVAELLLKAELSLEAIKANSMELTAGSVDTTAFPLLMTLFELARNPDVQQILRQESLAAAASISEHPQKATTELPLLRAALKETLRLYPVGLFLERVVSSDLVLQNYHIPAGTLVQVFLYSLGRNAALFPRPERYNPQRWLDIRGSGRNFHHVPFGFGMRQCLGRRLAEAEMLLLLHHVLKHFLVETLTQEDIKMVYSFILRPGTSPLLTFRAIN
Outline: (§1)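 Cellular format in stably transfected G-402 cells over 16 h. HTRF quantified aldosterone (CYP11B2, 1 μM deoxycorticosterone substrate) or cortisol (CYP11B1, 1 μM deoxycortisol substrate); EC50 obtained by fitting a 4-parameter sigmoid to dose–response data.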

[2] = molecular target: T2, human CYP11B1 (Homo sapiens, UniProt P15538); assay: G-402 cellular enzyme assay, human CYP11B1 (cortisol release, HTRF); format: cell-based; details: G-402 cells, 1 μM Deoxycortisol
T2 construct: expressed in transfected cells
T2 sequence (P15538 25-503): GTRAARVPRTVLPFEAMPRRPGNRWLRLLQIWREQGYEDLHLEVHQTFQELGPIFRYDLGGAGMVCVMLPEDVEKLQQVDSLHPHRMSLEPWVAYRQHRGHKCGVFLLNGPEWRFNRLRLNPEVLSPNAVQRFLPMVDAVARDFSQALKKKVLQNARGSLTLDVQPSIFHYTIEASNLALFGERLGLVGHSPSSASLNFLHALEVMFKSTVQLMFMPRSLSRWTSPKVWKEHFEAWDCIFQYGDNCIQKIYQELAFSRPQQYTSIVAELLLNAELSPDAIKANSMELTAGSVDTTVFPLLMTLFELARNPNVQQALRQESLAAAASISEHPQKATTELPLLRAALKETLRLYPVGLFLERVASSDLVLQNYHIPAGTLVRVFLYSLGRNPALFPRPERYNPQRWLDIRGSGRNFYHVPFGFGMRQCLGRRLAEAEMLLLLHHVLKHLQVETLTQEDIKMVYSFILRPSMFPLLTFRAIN
Outline: as §1

pEC50 [1] | pEC50 [2] | Compound
6.33 | 6.46 | O=C1c2ccc(Cl)cc2CCN1c1cncc(CNc2ccc(Cl)cc2)c1 [Example 260, 6-Chloro-2-{5-[(4-chloro-phenylamino)-methyl]-pyridin-3-yl}-3,4-dihydro-2H-isoquinolin-1-one]
8.55 | 6.63 | CC(=O)N1CCC(Oc2cncc(N3C(=O)c4ccc(Cl)cc4C3(C)C)c2)CC1 [Example 449, 2-[5-(1-Acetyl-piperidin-4-yloxy)-pyridin-3-yl]-5-chloro-3,3-dimethyl-2,3-dihydro-isoindol-1-one]
7.78 | 5.76 | CC1(C)c2cc(Cl)ccc2C(=O)N1c1cncc(CN2CCCCC2=O)c1 [Example 410, 5-Chloro-3,3-dimethyl-2-[5-(2-oxo-piperidin-1-ylmethyl)-pyridin-3-yl]-2,3-dihydro-isoindol-1-one]
6.12 | 5.68 | Cn1ccnc1C(O)c1cncc(N2CCc3cc(Cl)ccc3C2=O)c1 (stereo not shown) [Example 30, 6-Chloro-2-{5-[hydroxy-(1-methyl-1H-imidazol-2-yl)-methyl]-pyridin-3-yl}-3,4-dihydro-2H-isoquinolin-1-one]
5.61 | 6.00 | O=C1c2ccc(Cl)cc2CCN1c1cncc(COCC2CC2)c1 [Example 198, 6-Chloro-2-(5-cyclopropylmethoxymethyl-pyridin-3-yl)-3,4-dihydro-2H-isoquinolin-1-one]
7.10 | 6.01 | Cc1nccn1Cc1cncc(N2CCc3cc(Cl)ccc3C2=O)c1 [Example 142, 6-Chloro-2-[5-(2-methyl-imidazol-1-ylmethyl)-pyridin-3-yl]-3,4-dihydro-2H-isoquinolin-1-one]
6.01 | 4.82 | CC[C@@H]1c2cc(Cl)ccc2C(=O)N1c1cncc2c1CCC[C@@H]2NS(C)(=O)=O (single isomer, unassigned) [Example 349, N-[(S or R)-4-((R or S)-5-Chloro-3-ethyl-1-oxo-1,3-dihydro-isoindol-2-yl)-5,6,7,8-tetrahydro-isoquinolin-8-yl]-methanesulfonamide]
7.49 | 6.14 | CC(=O)N1CCCC(c2cncc(N3C(=O)c4ccc(Cl)cc4C3(C)C)n2)C1 (stereo not shown) [Example 462, 2-[6-(1-Acetyl-piperidin-3-yl)-pyrazin-2-yl]-5-chloro-3,3-dimethyl-2,3-dihydro-isoindol-1-one]
6.99 | 6.12 | O=C1c2ccc(Cl)cc2CCN1c1cncc2c1CCCC2O (stereo not shown) [Example 28, 6-Chloro-8′-hydroxy-3,4,5′,6′,7′,8′-hexahydro-[2,4′]biisoquinolinyl-1-one]
7.04 | 5.80 | Cc1ccnn1Cc1cncc(N2CCc3cc(Cl)ccc3C2=O)c1 [Example 71, 6-Chloro-2-[5-(5-methyl-pyrazol-1-ylmethyl)-pyridin-3-yl]-3,4-dihydro-2H-isoquinolin-1-one]
6.37 | 4.89 | O=C1CCCCN1Cc1cncc(N2Cc3cc(Cl)ccc3C2=O)c1 [Example 114, 5-Chloro-2-[5-(2-oxo-piperidin-1-ylmethyl)-pyridin-3-yl]-2,3-dihydro-isoindol-1-one]
8.25 | 6.23 | CC1(C)c2cc(Cl)ccc2C(=O)N1c1cncc(N2CCN(C(=O)c3ncccc3Cl)CC2)c1 [Example 459, 5-Chloro-2-{5-[4-(3-chloro-pyridine-2-carbonyl)-piperazin-1-yl]-pyridin-3-yl}-3,3-dimethyl-2,3-dihydro-isoindol-1-one]
7.45 | 6.93 | CC(C)(O)c1cncc(N2CCc3cc(Cl)ccc3C2=O)c1 [Example 12, 6-Chloro-2-[5-(1-hydroxy-1-methyl-ethyl)-pyridin-3-yl]-3,4-dihydro-2H-isoquinolin-1-one]
6.24 | 5.00 | NC(=O)COc1cncc(N2CCc3cc(Cl)ccc3C2=O)c1 [Example 253, 2-[5-(6-Chloro-1-oxo-3,4-dihydro-1H-isoquinolin-2-yl)-pyridin-3-yloxy]-acetamide]

Source: patent US9133158B2, “Bicyclic dihydroisoquinoline-1-one derivatives” (Hoffmann-La Roche Inc., priority 2011, dated 2015)
